Experimental data: US11691972B2, “Compounds for targeted degradation of BRD9” (C4 Therapeutics, Inc., priority 2020, dated 2023)

The compounds below were run against T1, BRD9 (Homo sapiens, UniProt Q9H8M2) (assay: HiBiT BRD9 degradation assay in 293T.166 (BRD9-HiBiT) cells). Conditions: Table 1; 293T.166 cells, 2.0 hours; class symbols; read-out: HiBiT-Degradation 293T.166 BRD9 2.0 hours (DC50).
T1 sequence (Q9H8M2 1-597): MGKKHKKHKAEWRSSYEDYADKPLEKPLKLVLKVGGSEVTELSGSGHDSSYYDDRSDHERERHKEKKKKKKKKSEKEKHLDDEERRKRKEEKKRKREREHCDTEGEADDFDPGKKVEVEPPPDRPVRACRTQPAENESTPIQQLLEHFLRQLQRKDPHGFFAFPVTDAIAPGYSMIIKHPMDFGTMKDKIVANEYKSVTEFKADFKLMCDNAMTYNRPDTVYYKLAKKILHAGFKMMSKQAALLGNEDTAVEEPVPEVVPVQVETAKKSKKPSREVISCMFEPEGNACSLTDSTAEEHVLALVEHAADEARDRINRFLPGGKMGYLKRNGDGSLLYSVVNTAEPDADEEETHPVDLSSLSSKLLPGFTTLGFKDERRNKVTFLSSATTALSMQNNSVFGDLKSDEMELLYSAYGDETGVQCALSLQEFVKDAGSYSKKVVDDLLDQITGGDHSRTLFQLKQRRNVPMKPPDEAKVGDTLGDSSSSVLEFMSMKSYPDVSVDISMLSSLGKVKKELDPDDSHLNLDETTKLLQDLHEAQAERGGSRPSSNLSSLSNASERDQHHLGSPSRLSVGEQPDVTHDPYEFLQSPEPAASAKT
Assay type: cell-based
Parameters: endogenously expressing BRD9 with HiBiT fusion tag via CRISPR; host or cells: 293T.166 (BRD9-HiBiT), also expressing LgBiT ectopically
Description: Selected compounds were tested in a BRD9 degradation assay using the HiBit Method.
Dulbecco's modified Eagle medium (DMEM) without phenol red and fetal bovine serum (FBS) were purchased from Gibco (Grand Island, N.Y., USA). Nano-Glo® HiBiT Lytic Assay System was purchased from Promega (Madison, Wis., USA). 293T.166 (BRD9-HiBiT) cell line, endogenously expressing BRD9 with HiBiT fusion tag via CRISPR and ectopically expressing LgBiT tag, was purchased from Promega (Madison, Wis., USA). 293T.167 (BRD7-HiBiT) cell line, endogenously expressing BRD7 with HiBiT fusion tag via CRISPR and ectopically expressing LgBiT tag, was purchased from Promega (Madison, Wis., USA). 293T.92 (BRD4-HiBiT) cell line, endogenously expressing BRD4 with HiBiT fusion tag via CRISPR and ectopically expressing LgBiT tag, was generated in-house. Cell culture flasks and 384-well microplates were acquired from VWR (Radnor, Pa., USA).
BRD9 degradation was determined based on quantification of luminescent signal using Nano-Glo® HiBiT Lytic Assay kit. Test compounds were added to the 384-well plate from a top concentration of 10 μM with 11 points, half log titration in duplicates. 293T.166 cells were added into 384-well plates at a cell density of 10,000 cells per well. The plates were kept at 37° C. with 5% CO2 for 2 hours. BRD7 and BRD4 degradation was similarly determined with 293T.167 cells and 293T.92 cells, respectively. The cells treated in the absence of the test compound were the negative control and the cells without Nano-Glo® HiBiT Lytic reagent were the positive control. After 2-hour incubation, Nano-Glo® HiBiT Lytic Assay reagents were added to the cells. Luminescence was acquired on EnVision™ Multilabel Reader (PerkinElmer, Santa Clara, Calif., USA).
In the case of COc1cc(-c2cn(C)c(=O)c3[nH]ncc23)cc(OC)c1CN1CCN(C(=O)CN2CCC(c3ccc(OC4CCC(=O)NC4=O)cc3)CC2)CC1 (centres unmarked) [Compound 21], the DC50 is reported as < 0.1 µM.
For CCOc1cc(-c2cn(C)c(=O)c3[nH]ncc23)c(OC)cc1CN1CCN(C(=O)CN2CCC(c3ccc(NC4CCC(=O)NC4=O)cc3)CC2)CC1 (centres unmarked) [Compound 22], the DC50 was < 0.1 µM.
With COc1cc(-c2cn(C)c(=O)c3[nH]ncc23)cc(F)c1CN1CCN(C(=O)CN2CCC(c3ccc(NC4CCC(=O)NC4=O)cc3C(F)(F)F)CC2)CC1 (centres unmarked) [Compound 23] the DC50 was < 0.1 µM.
With COc1cc(-c2cn(C)c(=O)c3[nH]ncc23)cc(F)c1CN1CCN(C(=O)CN2CCC(c3ccc(NC4CCC(=O)NC4=O)cc3Cl)CC2)CC1 (centres unmarked) [Compound 24] the DC50 was < 0.1 µM.
For COc1cc(CN2CCN(C(=O)CN3CCC(c4ccc(NC5CCC(=O)NC5=O)cc4)CC3)CC2)c(OCC(F)F)cc1-c1cn(C)c(=O)c2[nH]ncc12 (centres unmarked) [Compound 25], the DC50 was < 0.1 µM.
For COc1cc(CN2CCN(C(=O)CN3CCC(c4ccc(NC5CCC(=O)NC5=O)cc4)CC3)CC2)c(OC(C)C)cc1-c1cn(C)c(=O)c2[nH]ncc12 (centres unmarked) [Compound 26], the DC50 was < 0.1 µM.
COc1cc(-c2cn(C)c(=O)c3ccc(F)cc23)cc(OC)c1CN1CCN(C(=O)CN2CCC(c3ccc(NC4CCC(=O)NC4=O)cc3)CC2)CC1 (centres unmarked) [Compound 27] was tested, and the DC50 was < 0.1 µM.
In the case of COc1cc(-c2cn(C)c(=O)c3ccccc23)cc(OC)c1CN1CCN(C(=O)CN2CCC(c3ccc(NC4CCC(=O)NC4=O)cc3)CC2)CC1 (centres unmarked) [Compound 28], the DC50 is reported as < 0.1 µM.
In the case of COc1cc(-c2cn(C)c(=O)c3cc(Cl)ccc23)cc(OC)c1CN1CCN(C(=O)CN2CCC(c3ccc(NC4CCC(=O)NC4=O)cc3)CC2)CC1 (centres unmarked) [Compound 29], the DC50 is reported as < 0.1 µM.
With COc1cc(-c2cn(C)c(=O)c(C)c2C)cc(OC)c1CN1CCN(C(=O)CN2CCC(c3ccc(NC4CCC(=O)NC4=O)cc3)CC2)CC1 (centres unmarked) [Compound 30] the DC50 was < 0.1 µM.
In the case of COc1cc(-c2cc(C)c(=O)n(C)c2)cc(OC)c1CN1CCN(C(=O)CN2CCC(c3ccc(NC4CCC(=O)NC4=O)cc3)CC2)CC1 (centres unmarked) [Compound 31], the DC50 is reported as < 0.1 µM.
For COc1cc(-c2cn(C)c(=O)c3[nH]ncc23)cc(OC)c1CN1CCN(C(=O)CN2CC(c3ccc(NC4CCC(=O)NC4=O)cc3)C2)CC1 (centres unmarked) [Compound 32], the DC50 was < 0.1 µM.
In the case of COc1cc(-c2cn(C)c(=O)c3[nH]ncc23)cc(F)c1CN1CCN(C(=O)CN2CCC(c3ccc(NC4CCC(=O)NC4=O)cc3)C(F)(F)C2)CC1 (centres unmarked) [Compound 33], the DC50 is reported as < 0.1 µM.
For COc1cc(-c2cn(C)c(=O)c3[nH]ncc23)cc(Cl)c1CN1CCN(C(=O)CN2CCC(c3ccc(NC4CCC(=O)NC4=O)cc3)C(F)(F)C2)CC1 (centres unmarked) [Compound 34], the DC50 was < 0.1 µM.
With COc1cc(-c2cn(C)c(=O)c3[nH]ncc23)cc(F)c1CN1CCN(C(=O)CN2CCC(c3ccc(N(C)C4CCC(=O)NC4=O)cc3)CC2)CC1 (centres unmarked) [Compound 35] the DC50 was < 0.1 µM.
In the case of Cn1cc(-c2ccc(CN3CCN(C(=O)CN4CCC(c5ccc(NC6CCC(=O)NC6=O)cc5)CC4)CC3)c(OC(F)(F)F)c2)c2ccc(F)cc2c1=O (centres unmarked) [Compound 36], the DC50 is reported as < 0.1 µM.
COc1cc(-c2cn(C)c(=O)c3[nH]ncc23)cc(OC)c1CN1CCN(CC(=O)N2CCC(c3ccc(NC4CCC(=O)NC4=O)cc3)CC2)CC1 (centres unmarked) [Compound 37, 3-[4-[1-[2-[4-[[2,6-dimethoxy-4-(6-methyl-7-oxo-1H-pyrazolo[3,4-c]pyridin-4-yl)phenyl]methyl]piperazin-1-yl]acetyl]-4-piperidyl]anilino]piperidine-2,6-dione] was tested, and the DC50 was < 0.1 µM.
In the case of COc1cc(-c2cn(C)c(=O)c3[nH]ncc23)cc(OC)c1CNC1CN(CC(=O)N2CCC(c3ccc(NC4CCC(=O)NC4=O)cc3)CC2)C1 (centres unmarked) [Compound 38], the DC50 is reported as 0.1 to 0.5 µM.
COc1cc(-c2cn(C)c(=O)c3[nH]ncc23)cc(OC)c1CNC1CCN(CC(=O)N2CCC(c3ccc(NC4CCC(=O)NC4=O)cc3)CC2)CC1 (centres unmarked) [Compound 39] was tested, and the DC50 was < 0.1 µM.
COc1cc(-c2cn(C)c(=O)c3[nH]ncc23)cc(OC)c1CN1CCN(CCCC(=O)N2CCC(c3ccc(NC4CCC(=O)NC4=O)cc3)CC2)CC1 (centres unmarked) [Compound 40] was tested, and the DC50 was < 0.1 µM.
In the case of COc1cc(-c2cn(C)c(=O)c3[nH]ncc23)cc(OC)c1CN1CCN(C(=O)Cc2ccc(NC3CCC(=O)NC3=O)cc2F)CC1 (centres unmarked) [Compound 41, 3-[4-[2-[4-[[2,6-dimethoxy-4-(6-methyl-7-oxo-1H-pyrazolo[3,4-c]pyridin-4-yl)phenyl]methyl]piperazin-1-yl]-2-oxo-ethyl]-3-fluoro-anilino]piperidine-2,6-dione], the DC50 is reported as < 0.1 µM.
For COc1cc(-c2cn(C)c(=O)c3[nH]ncc23)cc(Cl)c1CN1CCC(CC(=O)N2CCC(c3ccc(NC4CCC(=O)NC4=O)cc3)CC2)CC1 (centres unmarked) [Compound 43], the DC50 was < 0.1 µM.
In the case of COc1cc(-c2cn(C)c(=O)c3cnccc23)cc(Cl)c1CN1CCC(CC(=O)N2CCC(c3ccc(NC4CCC(=O)NC4=O)cc3)CC2)CC1 (centres unmarked) [Compound 44], the DC50 is reported as < 0.1 µM.
In the case of COc1cc(-c2cn(C)c(=O)c3[nH]ncc23)cc(Cl)c1CN1CCC(CC(=O)N2CCC(c3ccc(NC4CCC(=O)NC4=O)cc3)C(F)(F)C2)CC1 (centres unmarked) [Compound 45], the DC50 is reported as < 0.1 µM.
For COc1cc(-c2cn(C)c(=O)c3[nH]ncc23)cc(OC)c1C(=O)N1CCN(C(=O)CN2CCC(c3ccc(NC4CCC(=O)NC4=O)cc3)CC2)CC1 (centres unmarked) [Compound 46, 3-[4-[1-[2-[4-[2,6-dimethoxy-4-(6-methyl-7-oxo-1H-pyrazolo[3,4-c]pyridin-4-yl)benzoyl]piperazin-1-yl]-2-oxo-ethyl]-4-piperidyl]anilino]piperidine-2,6-dione], the DC50 was < 0.1 µM.
In the case of COc1cc(-c2cn(C)c(=O)c3[nH]ncc23)cc(F)c1C(=O)N1CCN(C(=O)CN2CCC(c3ccc(NC4CCC(=O)NC4=O)cc3)CC2)CC1 (centres unmarked) [Compound 47], the DC50 is reported as < 0.1 µM.
In the case of Cn1cc(-c2cc(Cl)c(C(=O)N3CCN(C(=O)CN4CCC(c5ccc(NC6CCC(=O)NC6=O)cc5)CC4)CC3)cc2Cl)c2cn[nH]c2c1=O (centres unmarked) [Compound 48], the DC50 is reported as 0.1 to 0.5 µM.
With COc1cc(-c2cn(C)c(=O)c3[nH]ncc23)cc(F)c1CN1CCN(C(=O)CC2CCN(c3ccc(NC4CCC(=O)NC4=O)cc3)CC2)CC1 (centres unmarked) [Compound 49, 3-[4-[4-[2-[4-[[2-fluoro-6-methoxy-4-(6-methyl-7-oxo-1H-pyrazolo[3,4-c]pyridin-4-yl)phenyl]methyl]piperazin-1-yl]-2-oxo-ethyl]-1-piperidyl]anilino]piperidine-2,6-dione] the DC50 was < 0.1 µM.
In the case of COc1cc(-c2cn(C)c(=O)c3[nH]ncc23)cc(OC)c1CN1CCN(C(=O)CC2CCN(c3ccc(NC4CCC(=O)NC4=O)cc3)CC2)CC1 (centres unmarked) [Compound 50], the DC50 is reported as < 0.1 µM.
With Cn1cc(-c2ccc(CN3CCN(C(=O)CC4CCN(c5ccc(NC6CCC(=O)NC6=O)cc5)CC4)CC3)c(OC(F)(F)F)c2)c2cn[nH]c2c1=O (centres unmarked) [Compound 51] the DC50 was < 0.1 µM.
For COc1cc(-c2cn(C)c(=O)c3[nH]ncc23)cc(OC)c1CN1CCN(C(=O)CC2CCN(c3ccc(NC4CCC(=O)NC4=O)cc3C(F)(F)F)CC2)CC1 (centres unmarked) [Compound 52, 3-[4-[4-[2-[4-[[2,6-dimethoxy-4-(6-methyl-7-oxo-1H-pyrazolo[3,4-c]pyridin-4-yl)phenyl]methyl]piperazin-1-yl]-2-oxo-ethyl]-1-piperidyl]-3-(trifluoromethyl)anilino]piperidine-2,6-dione], the DC50 was < 0.1 µM.
With COc1cc(-c2cn(C)c(=O)c3[nH]ncc23)cc(Cl)c1CN1CCN(C(=O)CC2CCN(c3ccc(NC4CCC(=O)NC4=O)cc3C(F)(F)F)CC2)CC1 (centres unmarked) [Compound 53] the DC50 was < 0.1 µM.
COc1cc(-c2cn(C)c(=O)c3cnccc23)cc(OC)c1CN1CCN(C(=O)CC2CCN(c3ccc(NC4CCC(=O)NC4=O)cc3C(F)(F)F)CC2)CC1 (centres unmarked) [Compound 54] was tested, and the DC50 was < 0.1 µM.
COc1cc(-c2cn(C)c(=O)c3[nH]ncc23)cc(OC)c1CN1CCN(C(=O)CC2CCN(c3ccc(NC4CCC(=O)NC4=O)cc3C(F)(F)F)CC2)C(C)(C)C1 (centres unmarked) [Compound 57] was tested, and the DC50 was < 0.1 µM.
For COc1cc(-c2cn(C)c(=O)c3[nH]ncc23)cc(OC)c1CN1CCN(C(=O)CC2CCN(c3ccc(NC4CCC(=O)NC4=O)cc3C(F)(F)F)CC2)CC12CC2 (centres unmarked) [Compound 58], the DC50 was < 0.1 µM.
